The inhibition is the percentage by which the read-out fell short of the control.

The record followed here is ChEMBL document CHEMBL5143635, “Synthesis and biological evaluation of artemisinin derivatives as potential MS agents” (Bioorg Med Chem Lett, 2022).

Structures are written as SMILES. Activity calls are given as the source filed them. No cut-off for these calls is given here.

The nature of series [1]: Inhibition of Th17 cells differentiation in C57BL/6 mouse spleen CD4+ve Th cells assessed as decrease in IL-17A production at 10 uM measured after 4 days by flow cytometry analysis. It counts as functional. The following applies: C57BL/6, CD4+ve Th, 96 h, time 4 day.
Another series relates to CD4+ve Th. Description: Inhibition of Th17 cells differentiation in C57BL/6 mouse spleen CD4+ve Th cells assessed as decrease in IL-17A production at high concentrations measured after 4 days by flow cytometry analysis. It counts as functional, cell-based. The following applies: time 4.0 day.
The test system of another series is Mus musculus. Description: Immunosuppressive activity in MOG 35-55 residues/pertussis toxin-immunized autoimmune encephalomyelitis C57BL/6 mouse model assessed as suppression of disease progression by measuring clinical cumulative score at 100 mg/kg,po administered daily from day 3 measured for 21 days. The format is functional, organism-based. Conditions: time 21.0 day.

Series [2] can be described thus: Inhibition of Th1 cells differentiation in C57BL/6 mouse spleen CD4+ve Th cells assessed as decrease in IFNgamma production at 10 uM measured after 4 days by flow cytometry analysis (reference value: 41%). The format is functional. Conditions: C57BL/6, CD4+ve Th, 96 h, time 4 day.
Series [3] can be described thus: Toxicity in MOG 35-55 residues/pertussis toxin-immunized autoimmune encephalomyelitis C57BL/6 mouse model assessed as change in body weight at 100 mg/kg,po administered daily from day 3 measured for 21 days. The format is organism-based. Conditions: in vivo, 504 h, time 21 day.
Series [4] is described as follows: Inhibition of Th17 cells differentiation in C57BL/6 mouse spleen CD4+ve Th cells assessed as decrease in IL-17A production at 10 uM measured after 4 days by flow cytometry analysis (reference value: 28%). It counts as functional. Conditions: C57BL/6, CD4+ve Th, 96 h, time 4 day.
The nature of series [5]: Inhibition of Th17 cells differentiation in C57BL/6 mouse spleen CD4+ve Th cells assessed as decrease in IL-17A production at 10 uM measured after 4 days by flow cytometry analysis (reference value: 23%). The format is functional. Conditions: C57BL/6, CD4+ve Th, 96 h, time 4 day. On the technique in general: Flow cytometry measures light scatter and fluorescence of single cells or particles in a stream.

With `C[C@H]1[C@@H](SC(=O)CCCC[C@H]2CCSS2)O[C@@H]2O[C@@]3(C)CC[C@H]4[C@H](C)CC[C@@H]1[C@@]24OO3`, the inhibition at 10 µM in series [1] was less than 6%. In addition, in the series with CD4+ve Th, the inhibition result was “Active”.

Take `C[C@@H]1CC[C@H]2[C@@](C)(F)[C@@H](OC(=O)Nc3ccc(OC(F)(F)F)cc3)O[C@@H]3O[C@@]4(C)CC[C@@H]1[C@]32OO4`: the inhibition at 10 µM in series [1] was less than 6%. The inhibition entry with CD4+ve Th is “Active”.

Regarding `C[C@@H]1CC[C@H]2[C@@](C)(Cl)[C@@H](OC(=O)Nc3ccc(OC(F)(F)F)cc3)O[C@@H]3O[C@@]4(C)CC[C@@H]1[C@]32OO4`, in series [1], the inhibition at 10 µM was less than 6%. For the same compound, the inhibition entry in the series on CD4+ve Th was “Active”.

Turning to `C[C@H]1[C@@H](SC(=O)Nc2ccc(OC(F)(F)F)cc2)O[C@@H]2O[C@@]3(C)CC[C@H]4[C@H](C)CC[C@@H]1[C@@]24OO3`, in series [1], the inhibition at 10 µM is less than 6%. In addition, the inhibition entry in the series with CD4+ve Th was “Active”.

With `C[C@H]1[C@@H](OC(=O)CCCC[C@H]2CCSS2)O[C@@H]2O[C@@]3(C)CC[C@H]4[C@H](C)CC[C@@H]1[C@@]24OO3`, the result with Mus musculus was Active. In addition, the inhibition at 10 µM in series [2] was found to be 3%; in series [4], 8%. Further, the Activity entry in series [3] was “Toxic”.

For the compound `C[C@@H]1CC[C@H]2C(C)(C)[C@@H](OC(=O)Nc3ccc(OC(F)(F)F)cc3)O[C@@H]3O[C@@]4(C)CC[C@@H]1[C@]32OO4`, the inhibition at 10 µM in series [1] was less than 6%. In the series with CD4+ve Th, the inhibition result is “Active”.

Turning to `C[C@H]1[C@@H](S)O[C@@H]2O[C@@]3(C)CC[C@H]4[C@H](C)CC[C@@H]1[C@@]24OO3`, in series [5], the inhibition at 10 µM was found to be 12%.
